Patent publication EP0464206A1, “DRUG FOR IMPROVING BRAIN FUNCTION” (DAIICHI PHARMACEUTICAL CO., LTD., priority 1989, dated 1990)

Key:
[1] = test system: patients, who suffered from cerebrovascular dementia or Alzheimer's type senile dementia with Parkinson's disease as a complication; experiment: Clinical administration of DBcAMP by intravenous drip infusion to dementia patients; type: in vivo; conditions: for Side effect / Progress after administration and evaluation (symptom/ condition): 300 mg/day intravenous drip infusion for 8 hours
Method: 300 mg of sodium N⁶-2'-0-dibutyryladenosine-3',5'-cyclic phosphate (hereinafter, abbreviated as DBcAMP) was dissolved in a saline and administered to five patients, who suffered from cerebrovascular dementia or Alzheimer's type senile dementia with Parkinson's disease as a complication, by intravenous drip infusion for approximately 8 hours per day continuously.
These patients gave no response to a call and their intellectual level was decreased. […] Therefore, it was recognized that these patients suffered from serious dementia.

Acute toxicity in rats = conditions: in vivo, iv; rat, intravenously injected; read-out: LD₅₀
Method: The cAMP derivative of formula (I) and a salt thereof were administered to rats in order to examine the acute toxicities of these compounds.
(§1) DBcAMP was intravenously injected into rats and mice to thereby examine the acute toxicity thereof. As a result, LD₅₀ of this compound to rat was 459 mg/kg while that to mouse was 545 mg/kg.

Acute toxicity in mice = conditions: in vivo, iv; mouse, intravenously injected; read-out: LD₅₀
Method: as §1

[2] = Test 2: patient five, Cerebrovascular dementia

In the case of CCCC(=O)Nc1ncnc2c1ncn2[C@@H]1O[C@@H]2COP(=O)(O)O[C@H]2[C@H]1OC(=O)CCC [DBcAMP, sodium N⁶-2'-0-dibutyryladenosine-3',5'-cyclic phosphate], the Side effect ([1]; Test 1: patient three, Alzheimer's type dementia) is reported as “None”, the “Progress after administration and evaluation (symptom/ condition)” value (“Progress” for short) [1, 2] is reported as “Showed "Yes" or "No" for simple question by shaking head 1 week after the administration. No speech but groan. Remarkable improvement in symptoms caused by a decline in brain function, compared before the administration” and the Side effect [1, 2] is reported as “None”. For the same molecule, the “Progress” value ([1]; Test 3: patient four, Cerebrovascular dementia (with Parkinson's disease)) was “Groaned in night from the second day of the administration, after a year's silence. Groaning became larger thereafter. Improvement in various symptoms caused by a decline in brain function”, the Side effect ([1]; Test 3: patient four, Cerebrovascular dementia) was “None” and the “Progress” value ([1]; Test 4: patient two, Alzheimer's type dementia (with Parkinson's disease)) was “Answered to call 1 week after the administration. Soliloquized in night. Remarkable improvement in symptoms caused by a decline in brain function”. The Side effect ([1]; Test 4: patient two, Alzheimer's type dementia) was “None”, the Side effect ([1]; Test 5: patient one, Cerebrovascular dementia, multiple cerebral infarct) was “None” and the “symptoms of the complicated Parkinson's disease” value ([1]; five patients, 300 mg/day intravenous drip infusion) was “disappearance of oily skin and reduced myosclerosis”. The LD50 (Acute toxicity in rats) was 459 mg/kg and the LD50 (Acute toxicity in mice) was 545 mg/kg.
